Values of other authors in patent US20220080020A1, “COMPOSITIONS AND METHODS FOR REDUCING THE TRAN[…] […] USING AN ORAL […] SYSTEM” (priority 2020, published 2022).

Legend:
[1] = children, xylitol chewing gum or oral solution
[2] = aqueous solution
ACE2 receptor = conditions: prevents covid 19 attachment

| Compound | reduction in the incidence of otitis [1] | solubility (saturated solution) [2] | competition with the ACE2 receptor (ACE2 receptor) |
| --- | --- | --- | --- |
| OC[C@@H](O)[C@H](O)[C@@H](O)CO [xylitol] | between a thirty and forty-percent reduction | up to 64.2 grams per 100 ml of solution | – |
| Cc1cc(O)c2c(c1)C(=O)c1cc(O)cc(O)c1C2=O [Emodin] | – | – | compete with the ACE2 receptor |
